Marks after values point to notes of the source that are not given here. One block for each compound: values may come before it.
Assays:
[1] = Peak absorption wavelength, peak emission wavelength and fluorescent quantum yield; type: physicochemical
Description: Table 2 provides a peak absorption wavelength (λabs maximum), peak emission wavelength (λem maximum), a fluorescent quantum yield (ΦF), and a synthesis yield for the various compounds. The synthesis yield is based on the synthetic pathway illustrated in FIG. 1.

[2] = Emission spectrum on exposure to varying amounts of FeCl3; conditions: for total red-shift in peak emission wavelength: at saturation with Fe^3+
Method: Two substituted chromones (Compound 11 and Compound 20) were dissolved in methanol and exposed to varying amounts of FeCl3 (i.e., Fe^3+). FIG. 4 illustrates the shift in emission spectrum of Compound 11 with increasing amounts of Fe^3+ ions. With about 10 equivalents of Fe^3+ ions, the shift in emission spectrum is saturated, with a total of about a 30 nm red-shift in peak emission wavelength. FIG. 5 illustrates the shift in emission spectrum of Compound 20 with increasing amounts of Fe^3+ ions. With about 10 equivalents of Fe^3+ ions, the shift in emission spectrum is saturated, with a total of about a 50 nm red-shift in peak emission wavelength.
Compound 11 was dissolved in various solvents and then exposed to varying amounts of FeCl3 (i.e., Fe^3+).
(§1) Compound 11 was dissolved in methanol and then exposed to varying amounts of FeCl3 (i.e., Fe^3+) or (NH4)2Fe(SO4)2.6H2O (i.e., Fe^2+). […] Therefore, Compound 11 may be used to detect Fe^3+ while in the presence of Fe^2+.

[3] = Emission spectrum on exposure to varying amounts of (NH4)2Fe(SO4)2.6H2O; conditions: methanol; FIG. 6
Method: as §1

[4] = Emission spectrum on exposure to varying amounts of lead nitrate
Method: Compound 20 was dissolved in methanol and then exposed to varying amounts of […] (i.e., Pb^2+). […] Therefore, a kit, method, system, or the like may utilize a specific solvent system for detection of lead or other Ions. Alternatively, and especially where the metal ion concentration is unknown, a kit, method, system, or the like may utilize a series of solvent systems in parallel to determine a concentration of metal ions.
A 5 μM sample of Compound 25 in 3:1 tetrahydrofuran:methanol or 2:1 tetrahydrofuran:methanol was prepared and exposed to varying amounts of Pb(NO3)2 (i.e., Pb^2+) dissolved in deionized water.

[5] = Extraction of lead from water with octanol and triethylamine; conditions: 3 mM Pb(NO3)2, 1 equivalent triethylamine
Method: A 3 mM Pb(NO3)2 sample was prepared in deionized water and Compound 25 was added to give a green fluorescence. The lead was then extracted from the water using either 1-octanol or 2-octanol each with 1 equivalent (relative to Compound 25) of triethylamine, which turned the octanol portion green. After washing thrice with 1-octanol, 99% of the Pb^2+ had been extracted from the water. After washing twice with 2-octanol, 83% of the Pb^2+ had been extracted from the water.

[6] = Visual detection limit, blue to green fluorescence change; conditions: 5 μM compound in 3:1 tetrahydrofuran:methanol; Pb(NO3)2 in deionized water
Method: The detection limit Pb(NO3)2 (i.e., Pb^2+) for Compound 25 in 3:1 tetrahydrofuran:methanol was tested by exposing samples of 5 μM Compound 25 to ever decreasing concentrations of Pb(NO3)2 dissolved in deionized water.
A 40 mM solution of Pb(NO3)2 (i.e., Pb^2+) was prepared in tap water and then diluted with 3:1 tetrahydrofuran:methanol to a lead concentration of 133 μM. The resultant sample was added to solutions of 5 μM sample of Compound 25 in 3:1 tetrahydrofuran:methanol. […] This example illustrates that the lead detection can be performed using tap water, which includes a variety of other ions.

[7] = Detection of lead in methanol extract of soil
Method: A lead-free soil sample was collected, placed into a Buchner funnel, and soaked with 1 mL of 0.15 M Pb(NO3)2 in water to introduce lead to the soil. As a control sample, the same was performed with the lead-free soil without exposure to Pb^2+. After soaking, the soil samples were washed with 50 mL of methanol. A sample from each filtrate was diluted in 3:1 tetrahydrofuran:methanol and exposed to Compound 25. […] This example illustrates that the substituted chromones described herein may be useful in detecting ions from soil extracts.

[8] = Visual ion selectivity test, excited at 365 nm; conditions: 3:1 tetrahydrofuran:methanol
Method: Compound 25 was dissolved in 3:1 tetrahydrofuran:methanol and then exposed to varying amounts of Zn/SO4 (i.e., Zn^2+), (NH4)2Fe(SO4)2.6H2O (i.e., Fe^2+), Fe2O3 (i.e., Fe^3+), CuSO4 (i.e., Cu^2+), or Pb(NO3)2 (i.e., Pb^2+) each in deionized water. Upon visual inspection when excited at 365 nm, the sample exposed to Pb^2+ turned green while all other samples remained blue.

[9] = 5 μM compound, 3:1 or 2:1 tetrahydrofuran:methanol, excitation 370 nm

ΦF ([1]; solvent dichloromethane): 20* %
λabs maximum ([1]; solvent dichloromethane): 383 nm
λem maximum ([1]; solvent dichloromethane): 482 nm
Structure (SMILES): COC(=O)C(C)(C)C1Oc2ccc(OC)cc2C(=O)/C1=C\O (stereo not shown) [Compound 11, (Z)-methyl-2-(3-(hydroxymethylene)-6-methoxy-4-oxochroman-2-yl)-2-methylpropanoate]
red-shift in peak emission wavelength ([2]; 1:1 methanol:water as solvent): still exhibits a red-shift in peak emission wavelength
amount of Fe^3+ ions at which the shift in emission spectrum is saturated ([2]; methanol): about 10 equivalents
intensity change of peak emission with increasing metal ion concentration ([2]; methanol, FIG. 4): intensity decrease
shift of peak emission wavelength ([2]; methanol, FIG. 4): significant red-shift
total red-shift in peak emission wavelength ([2]; methanol): ~30 nm
red-shift in peak emission wavelength ([2]; polar aprotic solvents: tetrahydrofuran, acetonitrile, acetone): did not exhibit an appreciable red-shift
red-shift in peak emission wavelength ([2]; polar protic solvents: water, methanol, mixtures thereof): exhibited an appreciable red-shift
intensity change of peak emission with increasing metal ion concentration [3]: intensity decrease
shift of peak emission wavelength [3]: does not exhibit appreciable shift

Structure (SMILES): CCc1ccc2c(c1)C(=O)/C(=C\NS(=O)(=O)c1ccc(C)cc1)C(C(C)(C)C(=O)OC)O2 (stereo not shown) [Compound 20, (Z)-methyl 2-(6-ethyl-3-((4-methylphenylsulfonamido)methy-lene)-4-oxochroman-2-yl)-2-methylpropanoate]
ΦF ([1]; solvent acetonitrile): 16** %
λabs maximum ([1]; solvent acetonitrile): 369 nm
λem maximum ([1]; solvent acetonitrile): 496 nm
ΦF ([1]; solvent cyclohexane): 30*** %
λabs maximum ([1]; solvent cyclohexane): 364 nm
λem maximum ([1]; solvent cyclohexane): 481 nm
ΦF ([1]; solvent dichloromethane): 73* %
λabs maximum ([1]; solvent dichloromethane): 370 nm
λem maximum ([1]; solvent dichloromethane): 490 nm
red-shift in peak emission wavelength ([2]; 1:1 methanol:water as solvent): does not
amount of Fe^3+ ions at which the shift in emission spectrum is saturated ([2]; methanol): about 10 equivalents
total red-shift in peak emission wavelength ([2]; methanol): ~50 nm
amount of Pb^2+ at max shift in peak emission wavelength ([4]; 1:1 tetrahydrofuran:methanol): about 5 equivalents
amount of Pb^2+ at max shift in peak emission wavelength ([4]; 3:1 tetrahydrofuran:methanol): about 3 equivalents
shift in peak emission wavelength ([4]; THF alone): no appreciable shift in peak emission wavelength
amount of Pb^2+ at which the shift in peak emission wavelength maxes out ([4]; methanol): 10 equivalents
shift in peak emission wavelength at 1 equivalent Pb^2+ ([4]; methanol): no appreciable shift
shift in peak emission wavelength at 1 equivalent Pb^2+ ([4]; mixed tetrahydrofuran/methanol): appreciable shift

ΦF ([1]; solvent dichloromethane): 72* %
λabs maximum ([1]; solvent dichloromethane): 367 nm
λem maximum ([1]; solvent dichloromethane): 492 nm
Structure (SMILES): COC(=O)C(C)(C)C1Oc2ccc(C)cc2C(=O)/C1=C\NS(=O)(=O)c1ccc(OC)cc1 (stereo not shown) [Compound 24, (Z)methyl-2-(3-(((4-methoxyphenyl)sulfonamido)methy-lene)-6-methyl-4-oxochroman-2-yl)-2-methylpropanoate]

Structure (SMILES): COC(=O)C(C)(C)C1Oc2ccc(OC)cc2C(=O)/C1=C\NS(=O)(=O)c1ccc(OC)cc1 (stereo not shown) [Compound 25, (Z)methyl-2-(6-methoxy-3-(((4-methoxyphenyl)sulfonamido)methy-lene)-4-oxochroman-2-yl)-2-methylpropanoate]
ΦF ([1]; solvent dichloromethane): 69* %
λabs maximum ([1]; solvent dichloromethane): 392 nm
λem maximum ([1]; solvent dichloromethane): 527 nm
Pb^2+ extracted from the water ([5]; washing thrice with 1-octanol): 99%
Pb^2+ extracted from the water ([5]; washing twice with 2-octanol): 83%
speed of the color change [6]: almost instantaneous
change of peak emission in the presence of Pb^2+ [4, 9]: red-shift and intensity decrease
visual change of fluorescence colour [4, 9]: blue to green
color change with soil extract ([7]; extract from soil exposed to Pb^2+, diluted in 3:1 tetrahydrofuran:methanol): color change from blue to green
color change with soil extract ([7]; extract from soil not exposed to Pb^2+, same dilution): no color change
fluorescence colour of sample exposed to Cu^2+ [8]: remained blue
fluorescence colour of sample exposed to Fe^2+ [8]: remained blue
fluorescence colour of sample exposed to Fe^3+ [8]: remained blue
fluorescence colour of sample exposed to Zn^2+ [8]: remained blue
selectivity among heavy metal ions ([8]; Zn^2+, Fe^2+, Fe^3+, Cu^2+, Pb^2+ compared): selectivity for Pb^2+ ions over other heavy metal ions
fluorescence colour of sample exposed to Pb^2+ ([8]; excited at 365 nm): turned green

ΦF ([1]; solvent dichloromethane): 67* %
λabs maximum ([1]; solvent dichloromethane): 386 nm
λem maximum ([1]; solvent dichloromethane): 529 nm
Structure (SMILES): COC(=O)CC1Oc2ccc(OC)cc2C(=O)/C1=C\NS(=O)(=O)c1ccc(OC)cc1 (stereo not shown) [Compound 26, (Z)-methyl-2-(6-methoxy-3-(((4-methoxyphenyl)sulfonamido)methy-lene)-4-oxochroman-2-yl)acetate]

From patent US10444149B2, “Fluorescent compounds as sensing agents” (OHIO NORTHERN UNIVERSITY, priority 2016, dated 2019)
